For series [1], the system named is mice. The experiment in a line: Tolerability of chronic treatment. The class given is in vivo. Particulars: Cpd-60 45 mg/kg i.p., SAHA 25 mg/kg i.p.
For series [2], the system named is 80 common CNS targets including receptors, channels and transporters. The series is described as follows: CNS target binding assays (Cerep High-Throughput Profile P-3). Particulars: 10 µM, duplicate; significance 50% inhibition of control binding. An excerpt:
The specific ligand binding to the receptors is defined as the difference between the total binding and the nonspecific binding determined in the presence of an excess of unlabelled ligand. […] The experiment was accepted in accordance with Cerep’s validation Standard Operating Procedure.

Series [3] deals with HDAC9 (Homo sapiens, UniProt Q9UKV0). The series is described as follows: HDAC inhibition assay, recombinant enzyme, Caliper EZ reader.
HDAC9, sequence (Q9UKV0 whole entry): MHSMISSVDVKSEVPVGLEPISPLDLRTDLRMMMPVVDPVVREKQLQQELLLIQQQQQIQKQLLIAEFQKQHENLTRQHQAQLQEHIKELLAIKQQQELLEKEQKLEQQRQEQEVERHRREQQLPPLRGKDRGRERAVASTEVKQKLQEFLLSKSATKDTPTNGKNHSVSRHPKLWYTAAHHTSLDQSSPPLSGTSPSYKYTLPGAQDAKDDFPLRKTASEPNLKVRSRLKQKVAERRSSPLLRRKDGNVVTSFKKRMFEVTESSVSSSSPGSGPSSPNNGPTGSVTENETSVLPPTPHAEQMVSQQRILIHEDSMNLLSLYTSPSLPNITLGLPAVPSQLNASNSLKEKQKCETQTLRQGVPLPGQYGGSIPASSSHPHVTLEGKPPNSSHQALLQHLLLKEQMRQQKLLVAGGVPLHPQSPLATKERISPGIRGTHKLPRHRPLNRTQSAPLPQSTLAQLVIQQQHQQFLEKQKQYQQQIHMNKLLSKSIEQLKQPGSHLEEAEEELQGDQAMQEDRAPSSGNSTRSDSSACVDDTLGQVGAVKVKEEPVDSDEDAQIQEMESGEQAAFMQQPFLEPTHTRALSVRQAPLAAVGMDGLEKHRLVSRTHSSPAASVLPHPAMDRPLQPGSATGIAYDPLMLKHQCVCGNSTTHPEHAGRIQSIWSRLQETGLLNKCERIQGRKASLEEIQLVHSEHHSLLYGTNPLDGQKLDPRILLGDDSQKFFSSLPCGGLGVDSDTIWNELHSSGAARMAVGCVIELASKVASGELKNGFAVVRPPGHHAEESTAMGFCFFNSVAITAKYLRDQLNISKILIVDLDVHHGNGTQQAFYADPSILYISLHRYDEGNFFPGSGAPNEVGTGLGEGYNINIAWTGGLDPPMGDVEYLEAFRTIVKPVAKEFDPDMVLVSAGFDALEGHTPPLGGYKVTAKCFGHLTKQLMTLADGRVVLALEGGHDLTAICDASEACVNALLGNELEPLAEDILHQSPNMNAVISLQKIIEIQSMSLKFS
Series [4] addresses T1, HDAC8 (Homo sapiens, UniProt Q9BY41).
T1 sequence (Q9BY41 1-377): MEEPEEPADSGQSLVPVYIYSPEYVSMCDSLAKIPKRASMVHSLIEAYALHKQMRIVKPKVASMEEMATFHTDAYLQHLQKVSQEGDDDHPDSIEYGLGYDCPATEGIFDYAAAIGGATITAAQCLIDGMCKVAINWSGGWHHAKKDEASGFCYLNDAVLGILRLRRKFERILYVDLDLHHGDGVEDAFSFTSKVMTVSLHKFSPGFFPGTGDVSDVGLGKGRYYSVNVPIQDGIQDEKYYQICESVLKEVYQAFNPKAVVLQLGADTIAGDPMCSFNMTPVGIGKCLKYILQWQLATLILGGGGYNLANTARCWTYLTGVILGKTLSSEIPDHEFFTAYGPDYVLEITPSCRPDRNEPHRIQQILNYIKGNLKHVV
The description is as above.

The test system of series [5] is H4K12ac around TSS of Agxt2l1, Sgk1, Sult1a1, Tsc22d3. The experiment in a line: Chromatin immunoprecipitation (H4K12ac) of nucleus accumbens with qPCR. Particulars: NAc; 0.5 kB downstream of each TSS; 45 mg/kg i.p. 10 days. On the technique in general: In qPCR the cycle at which signal appears reflects the starting amount.
Method: Native chromatin immunoprecipitation (ChIP) was performed as previously described with minor modifications [27]. […] Nucleosomal chromatin (‘Input’) was prepared by digesting native (unfixed) chromatin with micrococcal nuclease. […] Purified, immunoprecipitated DNA was applied to qPCR using primers (Table S2) designed using NCBI PRIMER-BLAST targeting regions proximal to gene transcription start sites (TSS).
Native chromatin (unfixed tissue) was digested with 5 units/mL micrococcal nuclease at 37°C for 7 min followed by hypotonic lysis and debris clearing. […] Pelleted beads were washed, and protein complexes digested with proteinase K, followed by phenol-chloroform purification of DNA using glycogen to nucleate precipitation at -80°C. DNA was also purified from an equal volume of the ‘Input’ fraction without immunoprecipiation. […] Quantity of starting DNA was evaluated via ‘cross point’ cycle threshold values via Roche Lightcycler 480 software.
Series [6] relates to C57BL/6 mice. The series is described as follows: Amphetamine-induced hyperlocomotion (AIH). Type of series: in vivo, mouse. Particulars: chronic i.p.; Cpd-60 45 mg/kg, SAHA 25 mg/kg; vs vehicle; amphetamine 3.5 mg/kg. The protocol:
Compounds were administered between 9 am and 1 pm for 7 days prior to the start of behavioral testing, and after completion of each daily session during behavioral testing. Testing was performed 18–24 hr after the previous treatment to avoid transient effects. Amphetamine-induced hyperlocomotion (AIH) was performed as previously described on days 7–9 of treatment with activity measured before and after amphetamine challenge (AccuScan Instruments, Inc.). Forced-swim test (FST) behavior was performed as previously described on day 10 of treatment and total time spent immobile during a 6 min session was scored automatically (Ethovision; Noldus). Treatment effects were analyzed by one way analysis of variance (ANOVA) with post hoc analysis using Least Squared Differences test (SPSS v18.0 IBM).

The nature of series [7]: Mouse brain pharmacokinetics. Type of series: in vivo. The protocol:
Plasma, brain samples, and dose formulations, were analyzed as previously described using high performance liquid chromatography/mass spectrometry. Data acquisition and control system were created using Analyst 1.4 software (ABI Inc, Canada).

The target of series [8] is HDAC5 (Homo sapiens, UniProt Q9UQL6). The series is described as follows: HDAC inhibition assay, recombinant enzyme, Caliper EZ reader.
HDAC5, sequence (Q9UQL6 whole entry): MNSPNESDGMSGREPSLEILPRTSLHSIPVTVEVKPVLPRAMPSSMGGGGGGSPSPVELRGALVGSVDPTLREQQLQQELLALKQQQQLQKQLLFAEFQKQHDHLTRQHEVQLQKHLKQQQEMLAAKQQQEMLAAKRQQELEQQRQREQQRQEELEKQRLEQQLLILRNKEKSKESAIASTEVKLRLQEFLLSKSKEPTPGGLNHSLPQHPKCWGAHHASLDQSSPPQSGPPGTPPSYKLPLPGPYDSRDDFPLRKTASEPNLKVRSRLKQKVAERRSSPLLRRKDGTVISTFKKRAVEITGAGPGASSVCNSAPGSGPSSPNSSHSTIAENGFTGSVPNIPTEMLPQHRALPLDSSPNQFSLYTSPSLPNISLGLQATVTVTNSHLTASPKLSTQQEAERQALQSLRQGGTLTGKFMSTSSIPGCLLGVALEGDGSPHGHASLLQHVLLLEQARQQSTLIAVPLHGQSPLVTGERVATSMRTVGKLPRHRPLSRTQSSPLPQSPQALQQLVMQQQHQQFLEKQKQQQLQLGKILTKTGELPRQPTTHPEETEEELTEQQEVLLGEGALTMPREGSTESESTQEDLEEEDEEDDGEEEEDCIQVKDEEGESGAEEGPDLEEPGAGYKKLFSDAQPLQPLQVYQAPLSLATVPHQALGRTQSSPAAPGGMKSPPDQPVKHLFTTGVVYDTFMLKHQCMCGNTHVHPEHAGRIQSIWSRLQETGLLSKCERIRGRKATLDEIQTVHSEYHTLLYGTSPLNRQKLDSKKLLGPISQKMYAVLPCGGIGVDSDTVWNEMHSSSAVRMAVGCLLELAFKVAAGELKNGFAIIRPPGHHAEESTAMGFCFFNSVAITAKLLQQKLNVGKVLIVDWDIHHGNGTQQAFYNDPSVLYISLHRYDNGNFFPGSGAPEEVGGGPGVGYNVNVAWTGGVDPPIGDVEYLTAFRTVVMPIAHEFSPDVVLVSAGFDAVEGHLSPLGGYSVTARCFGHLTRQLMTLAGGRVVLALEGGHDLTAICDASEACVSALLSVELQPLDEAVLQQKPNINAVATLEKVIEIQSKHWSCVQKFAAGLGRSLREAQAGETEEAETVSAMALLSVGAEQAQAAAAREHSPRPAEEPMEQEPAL
Series [9] addresses T2, HDAC7 (Homo sapiens, UniProt Q8WUI4).
T2 sequence (Q8WUI4 1-952): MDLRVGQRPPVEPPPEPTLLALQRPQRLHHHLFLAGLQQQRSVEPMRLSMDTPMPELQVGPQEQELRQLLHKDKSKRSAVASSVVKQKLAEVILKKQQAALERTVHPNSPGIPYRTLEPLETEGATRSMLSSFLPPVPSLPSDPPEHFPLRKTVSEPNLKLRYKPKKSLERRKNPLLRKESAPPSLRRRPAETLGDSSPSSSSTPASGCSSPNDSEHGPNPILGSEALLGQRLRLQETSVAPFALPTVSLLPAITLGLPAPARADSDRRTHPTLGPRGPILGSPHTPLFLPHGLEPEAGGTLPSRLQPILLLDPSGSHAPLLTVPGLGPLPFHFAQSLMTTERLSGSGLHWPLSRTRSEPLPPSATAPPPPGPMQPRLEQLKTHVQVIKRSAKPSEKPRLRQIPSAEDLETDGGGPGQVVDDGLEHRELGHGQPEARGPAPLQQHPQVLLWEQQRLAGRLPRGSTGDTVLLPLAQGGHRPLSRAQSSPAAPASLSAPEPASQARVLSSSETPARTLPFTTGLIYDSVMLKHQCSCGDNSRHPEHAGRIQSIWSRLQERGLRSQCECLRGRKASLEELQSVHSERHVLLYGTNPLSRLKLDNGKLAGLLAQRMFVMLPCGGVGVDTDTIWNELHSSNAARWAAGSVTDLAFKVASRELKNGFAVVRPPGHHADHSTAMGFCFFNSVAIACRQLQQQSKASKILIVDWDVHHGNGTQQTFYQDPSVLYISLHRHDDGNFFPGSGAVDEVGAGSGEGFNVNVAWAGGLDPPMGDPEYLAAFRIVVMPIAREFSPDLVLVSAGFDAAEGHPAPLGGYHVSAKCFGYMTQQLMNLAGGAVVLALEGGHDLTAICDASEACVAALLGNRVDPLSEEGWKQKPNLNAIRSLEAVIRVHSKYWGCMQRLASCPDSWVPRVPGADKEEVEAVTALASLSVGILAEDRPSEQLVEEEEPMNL
The description is as above.

pIC50: −log10 of the molar value.

One may read the pIC50 as the IC50 on a negative log10 scale, so that one unit is a factor of ten. Take `CC(=O)Nc1ccc(C(=O)Nc2cc(-c3cccs3)ccc2N)cc1` [Cpd-60]: in series [1], the “tolerability of treatment for longer than 10 days” value is on record as “not well tolerated”. Moreover, the “binding to 80 CNS targets” value in [2] was “no significant binding to any of the targets”. The pIC50 in [3], in series [4], in [8] and in series [9] was < 4.52 throughout. Besides, the “H4K12ac levels downstream of the TSS” value in [5] is given as “lower than vehicle-treated controls”. The “reduction of amphetamine-induced hyperlocomotion” value in series [6] was determined as 36%. In addition, in series [7] (C57BL/6, mouse, brain, intraperitoneal, 45 mg/kg, systemic treatment, read-out: brain concentration maintained for at least 8 hr), the concentration at 8 hr is > 100 nM. The Cmax in series [7] (C57BL/6, mouse, brain, ip, 45 mg/kg, read-out: brain maximum concentration (Cmax)) was 830 nM. Further, the half-life in series [7] (C57BL/6, mouse, brain, ip, read-out: brain T1/2 (converted)) is 6.44 h. In addition, the “time to peak brain concentration” value in [7] (systemic treatment) was ≤ 5 min.

For the origin of these results see paper PMC3743770, “A Selective HDAC 1/2 Inhibitor Modulates Chromatin and Gene Expression in Brain and Alters Mouse Behavior in Two Mood-Related Tests” (PLoS ONE, 2013).
